Data from patent US20230200390A1, “SELECTIVE HERBICIDES BASED ON SUBSTITUTED ISOXAZOLIN CARBOXAMIDES AND MEFENPYR-DIETHYL” (BAYER AKTIENGESELLSCHAFT, priority 2020, published 2023).

How the values were obtained:
Format in all cases: in vivo
[1] = test system: spring barley, HORVS Montoya; assay: Tank-mix; post-emergence: crop damage by herbicide with/without safener mefenpyr-diethyl; settings: 21 DAT
In short: (§1)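 Visual percent crop damage (0–100 relative to untreated plants) assessed 1–3 weeks post-application. Plants in sandy loam were sprayed at the 1–3-leaf stage with herbicide with or without safener at several rates, water volume 300 l/ha.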

[2] = test system: spring wheat, TRZAS Triso; assay: as above; settings: 21 DAT
In short: as §1

[3] = test system: spring barley, HORVS Montoya; assay: Seed treatment with safener; pre-emergence herbicide, crop damage; settings: for HER effect + SAF / Reduction [%] / Reduction [Difference]: mefenpyr-diethyl 0.25 g a.i./kg seed
Procedure: (§2) For the safener seed treatment, sufficient seeds of the respective crops (spring wheat, TRZAS; spring barley, HORVS; maize, ZEAMA) were weighed into screw top glass bottles approximately twice the volume of the seeds.
(§3) The specified safeners, formulated as wettable powder (WP) were weighed out so that the specified rates (g a.i./kg seed) would be obtained, dissolved in water (1 ml water per 10 g of seeds), and added to the seeds to produce a slurry.
(§4) The bottles were capped and then placed in an overhead shaker (set at medium speed for ca. 60 minutes) so that the seeds were evenly coated with the slurry. The bottles were uncapped and the seeds were either placed on paper and dried for an interval of 3-4 hours prior to sowing, or directly sown. Seeds were placed in sandy loam soil in pots of a diameter of 7-8 cm, and covered with soil.
(§5) Pre-emergence application of the specified herbicides was done subsequently, on two sets of plants:
(§6) a) seed treatment with safener, as described above
(§7) The herbicides were formulated as WP and was sprayed onto the soil surface as an aqueous suspension at an equivalent water application rate of 300 l/ha.
(§8) After application, the test plants were kept in the greenhouse under good growth conditions. At intervals up to 4 weeks after application (=28 days after treatment; DAT), % crop damage observed on the treated plants was scored visually in comparison to control plants that had not received any safener or herbicide treatment.
(§9) Values in the table below are mean values of at least 2 replicates.

[4] = test system: spring wheat, TRZAS Triso; assay: as above; settings: for HER effect + SAF / Reduction [%] / Reduction [Difference]: mefenpyr-diethyl 0.25 g a.i./kg seed
Procedure: as §2, §3, §4, §5, §6, §7, §8, §9

[5] = test system: spring barley, HORVS Montoya; assay: Seed treatment with safener; post-emergence herbicide, crop damage; settings: 21 DAT; for HER effect + SAF / Reduction [%] / Reduction [Difference]: mefenpyr-diethyl 0.5 g a.i./kg seed
In short: (§10)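 Crop injury was rated visually in % at 10 and 21 days after post-emergence spraying at the 2-leaf stage. The herbicide was a WP in 300 l/ha water plus 1 l/ha MERO. Plants grew from seed either safener-coated at stated g a.i./kg rates via a milk-diluted slurry, or untreated.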

[6] = test system: spring wheat, TRZAS Triso; assay: as above; settings: 21 DAT; for HER effect + SAF [%] (crop damage) / Reduction [%] / Reduction [Difference]: mefenpyr-diethyl 0.5 g a.i./kg seed; for HER effect [%] (crop damage, herbicide without safener): no safener
In short: as §10

[7] = HER 0.5 g a.i./ha + mefenpyr-diethyl 50 g a.i./ha
[8] = HER 2 g a.i./ha + mefenpyr-diethyl 100 g a.i./ha
[9] = HER 1 g a.i./ha + mefenpyr-diethyl 50 g a.i./ha
[10] = HER 4 g a.i./ha + mefenpyr-diethyl 100 g a.i./ha
[11] = HER 5 g a.i./ha pre-emergence, 11 DAT (Interim)
[12] = HER 5 g a.i./ha pre-emergence, 21 DAT (Final)
[13] = HER 15 g a.i./ha pre-emergence, 11 DAT (Interim)
[14] = HER 15 g a.i./ha pre-emergence, 21 DAT (Final)
[15] = herbicide alone 5 g a.i./ha pre-emergence, 11 DAT (Interim)
[16] = herbicide alone 5 g a.i./ha pre-emergence, 21 DAT (Final)
[17] = herbicide alone 15 g a.i./ha pre-emergence, 11 DAT (Interim)
[18] = herbicide alone 15 g a.i./ha pre-emergence, 21 DAT (Final)
[19] = HER 0.5 g a.i./ha post-emergence

C=CC1(C(=O)NC2COC(C(=O)OC)C2)CC(c2cc(F)cc(F)c2)=NO1 (mixture of isomers) [Example 1.68]
HER effect + SAF [1, 7]: 0%
Reduction [%] [1, 7]: 100%
Reduction [Difference] [1, 7]: 30
HER effect + SAF [1, 8]: 10%
Reduction [%] [1, 8]: 75%
Reduction [Difference] [1, 8]: 30
HER effect ([1]; herbicide alone 0.5 g a.i./ha): 30%
HER effect ([1]; herbicide alone 2 g a.i./ha): 40%
HER effect + SAF [2, 9]: 30%
Reduction [%] [2, 9]: 63%
Reduction [Difference] [2, 9]: 50
HER effect + SAF [2, 10]: 60%
Reduction [%] [2, 10]: 29%
Reduction [Difference] [2, 10]: 25
HER effect ([2]; herbicide alone 1 g a.i./ha): 80%
HER effect ([2]; herbicide alone 4 g a.i./ha): 85%
HER effect + SAF [3, 11]: 5%
Reduction [%] [3, 11]: 80%
Reduction [Difference] [3, 11]: 20
HER effect + SAF [3, 12]: 5%
Reduction [%] [3, 12]: 83%
Reduction [Difference] [3, 12]: 25
HER effect + SAF [3, 13]: 0%
Reduction [%] [3, 13]: 100%
Reduction [Difference] [3, 13]: 65
HER effect + SAF [3, 14]: 60%
Reduction [%] [3, 14]: 25%
Reduction [Difference] [3, 14]: 20
HER effect [3, 15]: 25%
HER effect [3, 16]: 30%
HER effect [3, 17]: 65%
HER effect [3, 18]: 80%
HER effect + SAF [4, 11]: 15%
Reduction [%] [4, 11]: 67%
Reduction [Difference] [4, 11]: 30
HER effect + SAF [4, 12]: 5%
Reduction [%] [4, 12]: 89%
Reduction [Difference] [4, 12]: 40
HER effect + SAF [4, 13]: 30%
Reduction [%] [4, 13]: 63%
Reduction [Difference] [4, 13]: 50
HER effect + SAF [4, 14]: 30%
Reduction [%] [4, 14]: 65%
Reduction [Difference] [4, 14]: 55
HER effect [4, 15]: 45%
HER effect [4, 16]: 45%
HER effect [4, 17]: 80%
HER effect [4, 18]: 85%
HER effect + SAF [5, 19]: 0%
Reduction [%] [5, 19]: 100%
Reduction [Difference] [5, 19]: 30
HER effect + SAF ([5]; HER 2 g a.i./ha post-emergence): 0%
Reduction [%] ([5]; HER 2 g a.i./ha post-emergence): 100%
Reduction [Difference] ([5]; HER 2 g a.i./ha post-emergence): 40
HER effect ([5]; herbicide alone 0.5 g a.i./ha post-emergence): 30%
HER effect ([5]; herbicide alone 2 g a.i./ha post-emergence): 40%
HER effect + SAF [%] (crop damage) ([6]; HER dose 1 g a.i./ha): 20%
Reduction [%] ([6]; HER dose 1 g a.i./ha): 75%
Reduction [Difference] ([6]; HER dose 1 g a.i./ha): 60
HER effect [%] (crop damage, herbicide without safener) ([6]; HER dose 1 g a.i./ha): 80%
HER effect + SAF [%] (crop damage) ([6]; HER dose 4 g a.i./ha): 30%
Reduction [%] ([6]; HER dose 4 g a.i./ha): 65%
Reduction [Difference] ([6]; HER dose 4 g a.i./ha): 55
HER effect [%] (crop damage, herbicide without safener) ([6]; HER dose 4 g a.i./ha): 85%
